Oligonucleotides are written 5' to 3', each unit as a sugar letter and its base; * is a phosphorothioate linkage, no mark a phosphodiester; rarer units and linkages stand in square brackets, end groups in braces. Plain capitals give the bases only. k = constrained ethyl (cEt); [5mC] = 5-methylcytosine; d = 2'-deoxy (DNA)
Experiments:
AR mRNA [1] = assay: Dose-dependent antisense inhibition of human AR in HuVEC cells (electroporation, qRT-PCR RTS3559, IC50); format: cell-based; conditions: HuVEC
Description: (§1) After a treatment period of approximately 16 hours, RNA was isolated from the cells and AR mRNA levels were measured by quantitative real-time PCR. Human AR primer probe set RTS3559 was used to measure mRNA levels. AR mRNA levels were adjusted according to total RNA content, as measured by RIBOGREEN®. […] The antisense oligonucleotides were tested in a series of experiments that had similar culture conditions.
as §1, §1, §1, §1
(§2) After a treatment period of approximately 16 hours, RNA was isolated from the cells and AR mRNA levels were measured by quantitative real-time PCR. Human AR primer probe set RTS3559 was used to measure mRNA levels. AR mRNA levels were adjusted according to total RNA content, as measured by RIBOGREEN®.
as §2

AR mRNA [2] = assay: Antisense inhibition of human AR in HuVEC cells, single concentration (electroporation, qRT-PCR RTS3559); format: cell-based
Description: Antisense oligonucleotides were designed targeting an AR nucleic acid and were tested for their effects on AR mRNA in vitro. The antisense oligonucleotides were tested in a series of experiments that had similar culture conditions. […] Human primer probe set RTS3559 (forward sequence [NT], designated herein as SEQ ID NO: 9; reverse sequence [NT], designated herein as SEQ ID NO: 10; probe sequence [NT], designated herein as SEQ ID NO: 11) was used to measure mRNA levels. AR mRNA levels were adjusted according to total RNA content, as measured by RIBOGREEN®. […] A total of 155 oligonucleotides were tested. Additional antisense oligonucleotides were designed targeting an AR nucleic acid and were tested for their effects on AR mRNA in vitro. […] Human primer probe set RTS3559 was used to measure mRNA levels. AR mRNA levels were adjusted according to total RNA content, as measured by RIBOGREEN®. […] A total of 82 oligonucleotides were tested. Additional antisense oligonucleotides were designed targeting an AR nucleic acid and were tested for their effects on AR mRNA in vitro. […] Human primer probe set RTS3559 was used to measure mRNA levels. AR mRNA levels were adjusted according to total RNA content, as measured by RIBOGREEN®. […] A total of 40 oligonucleotides were tested. Additional antisense oligonucleotides were designed targeting an AR nucleic acid and were tested for their effects on AR mRNA in vitro. […] Human primer probe set RTS3559 was used to measure mRNA levels. AR mRNA levels were adjusted according to total RNA content, as measured by RIBOGREEN®. […] A total of 75 oligonucleotides were tested. Additional antisense oligonucleotides were designed targeting an AR nucleic acid and were tested for their effects on AR mRNA in vitro. […] Human primer probe set RTS3559 was used to measure mRNA levels. AR mRNA levels were adjusted according to total RNA content, as measured by RIBOGREEN®. […] A total of 616 oligonucleotides were tested. Additional antisense oligonucleotides were designed targeting an AR nucleic acid and were tested for their effects on AR mRNA in vitro. […] Human primer probe set RTS3559 was used to measure mRNA levels. AR mRNA levels were adjusted according to total RNA content, as measured by RIBOGREEN®. […] A total of 385 oligonucleotides were tested.

[3] = Table 29, electroporation, approximately 16 hours
[4] = 500 nM ASO, electroporation, ~24 h, Table 1
[5] = Table 33, electroporation, approximately 16 hours
[6] = Table 20, 500 nM oligonucleotide, electroporation, approximately 24 hours, relative to untreated control
[7] = Table 35, electroporation, approximately 16 hours

## 583583 (antisense kG*kA*k[5mC]*dT*dG*dA*dG*dG*d[5mC]*dA*dG*d[5mC]*dT*kG*k[5mC]*kG) [compound 583583]
AR mRNA [1]; [3]
  percent inhibition of AR, 46.9 nM: 21%
  percent inhibition of AR, 187.5 nM: 31%
  percent inhibition of AR, 750.0 nM: 49%
  percent inhibition of AR, 3000.0 nM: 64%
  IC50: 790 nM
AR mRNA [2]; 500 nM ASO, ~24 h, Table 16
  % inhibition: 45%

## 549366 (k[5mC]*kT*kT*dG*d[5mC]*d[5mC]*dT*dG*d[5mC]*dG*d[5mC]*dT*dG*kT*k[5mC]*kG; antisense) [compound 549366]
AR mRNA [1]; 55.6 nM, ~16 h, Table 4
  percent inhibition of AR: 44%
AR mRNA [1]; 166.7 nM, ~16 h, Table 4
  percent inhibition of AR: 58%
AR mRNA [1]; 500.0 nM, ~16 h, Table 4
  percent inhibition of AR: 72%
AR mRNA [1]; 1500.0 nM, ~16 h, Table 4
  percent inhibition of AR: 91%
AR mRNA [1]; ~16 h, Table 4
  IC50: 129 nM
AR mRNA [2]; [4]
  % inhibition: 84%

## 583843 (kG*kT*kA*d[5mC]*dA*dT*dG*d[5mC]*dA*dA*dT*d[5mC]*d[5mC]*k[5mC]*k[5mC]*k[5mC]; antisense) [compound 583843]
AR mRNA [1]; [5]
  percent inhibition of AR, 46.9 nM: 22%
  percent inhibition of AR, 187.5 nM: 40%
  percent inhibition of AR, 750.0 nM: 67%
  percent inhibition of AR, 3000.0 nM: 85%
  IC50: 300 nM
AR mRNA [2]; [6]
  % inhibition: 35%

## 584180 (kG*kT*kA*dG*dA*dT*dT*d[5mC]*dT*dA*dG*d[5mC]*dT*kT*kT*kG; antisense) [compound 584180]
AR mRNA [1]; [7]
  percent inhibition of AR, 46.9 nM: 26%
  percent inhibition of AR, 187.5 nM: 56%
  percent inhibition of AR, 750.0 nM: 84%
  percent inhibition of AR, 3000.0 nM: 96%
  IC50: 120 nM
AR mRNA [2]; Table 24, 1,000 nM oligonucleotide, electroporation, approximately 24 hours, relative to untreated control
  % inhibition: 81%

## 583566 (antisense k[5mC]*k[5mC]*kT*dT*dG*d[5mC]*dT*dT*d[5mC]*d[5mC]*dT*d[5mC]*d[5mC]*kG*kA*kG) [compound 583566]
AR mRNA [1]; [3]
  percent inhibition of AR, 46.9 nM: 0%
  percent inhibition of AR, 187.5 nM: 28%
  percent inhibition of AR, 750.0 nM: 50%
  percent inhibition of AR, 3000.0 nM: 74%
  IC50: 730 nM
AR mRNA [2]; 500 nM ASO, ~24 h, Table 16
  % inhibition: 47%

## 549374 (kG*k[5mC]*kG*d[5mC]*dT*dG*d[5mC]*d[5mC]*dG*dT*dA*dG*dT*k[5mC]*k[5mC]*kA; antisense) [compound 549374]
AR mRNA [1]; 55.6 nM, ~16 h, Table 3
  percent inhibition of AR: 40%
AR mRNA [1]; 166.7 nM, ~16 h, Table 3
  percent inhibition of AR: 59%
AR mRNA [1]; 500.0 nM, ~16 h, Table 3
  percent inhibition of AR: 83%
AR mRNA [1]; 1500.0 nM, ~16 h, Table 3
  percent inhibition of AR: 92%
AR mRNA [1]; ~16 h, Table 3
  IC50: 108 nM
AR mRNA [2]; [4]
  % inhibition: 93%

## 583862 (kG*k[5mC]*kT*d[5mC]*dT*dT*dG*d[5mC]*d[5mC]*dT*dG*d[5mC]*dG*k[5mC]*kT*kG; antisense) [compound 583862]
AR mRNA [1]; [5]
  percent inhibition of AR, 46.9 nM: 15%
  percent inhibition of AR, 187.5 nM: 37%
  percent inhibition of AR, 750.0 nM: 64%
  percent inhibition of AR, 3000.0 nM: 79%
  IC50: 410 nM
AR mRNA [2]; [6]
  % inhibition: 32%

— USRE48461E1, “Modulation of androgen receptor expression” (Ionis Pharmaceuticals, Inc., priority 2012, dated 2021)
